According to article PMC2225439, “Amyloid as a Depot for the Formulation of Long-Acting Drugs” (PLoS Biology, 2008):

What was measured:
[1] = system: plasma luteinizing hormone (LH) levels; details: cited from earlier work; for Action: duration of action class as listed in Table 1, castrated male rat assay, ref Tables S1 and S2
Description: Table 1 Biochemical and Biophysical Properties of Aggregates By GnRH-Analogs | column: Action || Supplement pbio.0060017.st001.doc, table 1: Table S1: Short acting GnRH analogs with their duration of action | column: Duration of action^b || Supplement pbio.0060017.st002.doc, table 1: Table S2: Long acting GnRH analogs with their duration of action | column: Duration of action^b || (+ 2 further places)

[2] = Peptide release from amyloid (dialysis experiment); details: for KD: dissociation constant of the aggregates = final monomer concentration, 200 μl of 30-d-old analog dialyzed against 4 ml 5% D-mannitol, fluorescence ex 280 nm
Procedure: Although amyloid fibrils are very stable, they must follow thermodynamic equilibrium conditions between fibril and monomer. […] A total of 200 μl of 30-d-old GnRH analog (in) was dialyzed 4 ml of 5% D-mannitol (out). A 3.5-kDa cutoff, which is twice the size of the peptides studied, was chosen to ensure that the released particles are most likely monomeric. The peptide release and the remaining aggregates were monitored by fluorescence over 35 d at room temperature.
A 200-μl aliquot of aged GnRH in solution conditions given above was transferred into a 0.6-ml Eppendorf tube with a hole in the cap. To study the effect of heparin on peptide release, a mixture of hormone analog and heparin (1:1 v/v) was incubated overnight in parallel with a half-diluted peptide fibril sample in 5% D-mannitol and 0.01% sodium azide. The hole in the cap of the Eppendorf tube was sealed with a 3.5-kDa molecular weight cutoff (MWCO) membrane. Next, the Eppendorf tube was inserted upside down into a 15-ml Falcon tube containing 4 ml of 5% D-mannitol in water and 0.01% sodium azide. Care was taken to make sure that the membrane was exposed to solutions both in and outside and that any bubbles at the membrane interface were removed. The tubes were then incubated at room temperature. To measure the remaining peptide concentration inside the 0.6-ml Eppendorf tube, a 5-μl aliquot was diluted into 500 μl water with 5% D-mannitol, 0.01% sodium azide, and the fluorescence was measured with excitation at 280 nm and emission in the range of 290–500 nm. The excitation slit width was 2 nm, and emission slit width was 11 nm. To determine the peptide concentration outside the membrane in the 15-ml tube, an aliquot of 250 μl of solution was taken from the releasing medium, diluted into 500 μl final volume by 5% D-mannitol, 0.01% sodium azide, and fluorescence was measured. Following spectra recording, the dialysis system was reassembled as described above. […] The normalized intensity maxima from inside and outside the membrane were plotted as a function of time and fit by an exponential function to extract the half-life of the fibrils and the K off, respectively. […] The extracted half-life, t 1/2, is the time taken, during which the fluorescence signal inside the 0.6-ml Eppendorf tube drops by 50%.

Congo red (CR) binding = type: physicochemical; set-up: key to Congo Red: b, binding; n, not binding; details: analogs incubated for 30 d; for Congo Red: 1 mg/ml in 5% D-mannitol, 0.01% sodium azide, room temperature, UV 300–700 nm and by eye, three independent experiments
Procedure: To confirm amyloid formation by GnRH analogs, CR binding was measured. CR, like Thio T, is a dye routinely used to detect β-sheet–rich assemblies. CR binding can be measured by the “red shift” change of its absorption maximum from 490 to 540 nm, by an increase of the dye's molar absorptivity, and in favorable cases by eye. All three types of measurements were performed with GnRH analogs incubated for 30 d. […] However, five short-acting GnRH analogs, i.e., S3, S4, S6, S10, and S11, bind CR, showing that some short-acting GnRH-analogs are able to form amyloids after prolonged incubation (see also below). In contrast to short-acting analogs, all long-acting analogs bind CR.
(§1) GnRH analogs were dissolved in a glass tube in 1 ml of 5% D-mannitol and 0.01% sodium azide at a concentration of 1 mg/ml. The GnRH analogs were then incubated at room temperature without stirring. The fibril formation was monitored by EM, CR, and time-resolved by Thio T binding studies. Three independent experiments were performed for each sample.
A 5-μl aliquot of peptide sample was mixed with 80 μl of PBS buffer containing 10% ethanol. Then 15 μl of a 100 μM CR solution (filtered through 0.2-μm filter) in PBS containing 10% ethanol was added. After mixing, UV was measured from 300–700 nm. For the measurement of the CR-only spectrum, 15 μl of CR solution with 85 μl of PBS containing 10% ethanol was prepared. As a control, a 5-μl aliquot of GnRH analog mixed with 95 μl of PBS containing 10% ethanol was measured. Three independent experiments were performed for each sample. In addition to the UV measurements, pictures of the cuvette containing the peptide sample and CR were taken to visually show the CR binding to the amyloids.

[3] = Electron microscopy of negative-stained samples; type: physicochemical; set-up: key to EM^8 / EM^30: fib, fibrils; nfib, no fibrils; details: for EM^8: electron microscopy at day 8 of incubation; for EM^8 / EM^30: 1 mg/ml in 5% D-mannitol, room temperature, at least two independent experiments; for EM^30: electron microscopy at day 30 of incubation; for EM, formation of amyloid-like fibrils at day 30 (in words): 30 d of incubation
Procedure: To formally determine the formation of amyloid fibrils by GnRH analogs and to characterize other possible assemblies present in the sample, EM was done on all of the GnRH analogs. Since the EM analysis is for a qualitative interpretation only, amyloid fibrils and other small aggregates might be observed under the electron microscope even if only a minority of the sample forms fibrils. Samples were studied after 8 and 30 d of incubation. […] The fibrils show a wide variety of morphologies, comprising helical ultrastructures with varying degrees of lateral association. Furthermore, the fibrils are composed of one or more filaments, resulting in overall diameters ranging from approximately 6 to 12 nm. No oligomers are observed for the long-acting compounds at day 8 or at day 30 (Figures 2 and S2).
as §1
A 5-μl aliquot of peptide sample was diluted into 50 μl of water to a peptide concentration of approximately 50 μM, spotted on a glow-discharged, carbon-coated Formvar grid (Electron Microscopy Sciences), incubated for 5 min, washed with distilled water, and then stained with 1% (w/v) aqueous uranyl formate solution. Uranyl formate solutions were filtered through 0.2-μm sterile syringe filters (Corning) before use. EM analysis was performed using a JEOL JEM-100CXII electron microscope at 80 kV with nominal magnifications between 36,000 and 72,000. Images were recorded digitally by using the SIS Megaview III imaging system. At least two independent experiments were carried out for each sample.

[4] = Thio T binding (amyloid fibril formation); type: physicochemical; set-up: key to Thio T Binding: b, binding; n, not binding; details: 1 mg/ml in 5% D-mannitol, 0.01% sodium azide, room temperature without stirring, monitored daily over 21 d; fluorescence ex 450 nm / em 482 nm; three independent experiments
Procedure: The kinetics of fibril formation in vitro is generally a slow process over several days or weeks, and can be monitored by the increase of fluorescence intensity of the cross-β-sheet–sensitive dye, Thio T [15]. Thio T fluorescence is thereby insignificant during the initial incubation period of amyloid aggregation due to the nonexistence of Thio T–sensitive β-sheet aggregates. After the initial phase, a time-dependent increase of fluorescence intensity is observed until a maximum intensity is reached, at which time maximal fibril formation has occurred. […] For the Thio T binding studies, all GnRH analogs were incubated at room temperature at a concentration of 1 mg/ml in 5% D-mannitol, conditions identical to the formulation used in the animal experiments. In addition, 0.01% sodium azide was added. The Thio T fluorescence was monitored daily for all analogs over a period of 21 d (Figure 1).
as §1
A 10-μl aliquot of peptide sample was diluted into 500 μl of water with 5% D-mannitol containing 0.01% (w/v) sodium azide. The solution was mixed with 10 μl of 1 mM Thio T prepared in the same solution. Fluorescence was measured immediately after addition of Thio T. The experiment was measured on a spectrofluorimeter (Photon Technology International) with excitation at 450 nm and emission at 482 nm. The fluorescence intensity at 482 nm was plotted against incubation time (day). A rectangular 10-mm quartz microcuvette was used. Three independent experiments were performed for each sample.

[5] = 3.5-kDa MWCO, room temperature, 35 d
[6] = half-life of fibrils: time in which fluorescence inside drops by 50%, dialysis of 30-d-old analog, 3.5-kDa MWCO, 5% D-mannitol, room temperature, 35 d, exponential fit, 2 d = intrinsic diffusion of monomer
[7] = dialysis, 3.5-kDa cutoff, room temperature, 35 d

KD [2, 5] [nM]	t1/2 [2, 6]	Congo Red (Congo red (CR) binding)	EM^8 [3]	EM^30 [3]	Thio T Binding [4]	time to reach equilibrium of fluorescence inside and outside of the membrane ([2]; dialysis, 3.5-kDa cutoff, room temperature) [days]	Molecule	Action [1]	EM, formation of amyloid-like fibrils at day 30 (in words) [3]	duration of action ([1]; ref [29],[30])	K off [2, 7]	t1/2 [2, 7]	stability of fibrils from release profile (in words) ([2]; dialysis of 30-d-old samples, 35 d)	Koff ([2]; monomer release from aggregates, dialysis of 30-d-old analog, 3.5-kDa MWCO, 5% D-mannitol, room temperature, 35 d, exponential fit)	CR binding (in words) (Congo red (CR) binding)	EM, formation of amyloid-like fibrils at day 8 (in words) ([3]; 8 d of incubation)
	48 h	n	nfib	nfib	n		Ac-DNal-DCpa-DPal-Ser-D,LAgl(Me,acetylamino)benzoyl-DAph(Ac)-Leu-ILys-Pro-DAla-NH2 [S9]	very short	do not form any detectable amyloid-like fibrils							
	48 h	n	nfib	nfib	n	≤ 3	CC(C)C[C@H](NC(=O)CNC(=O)[C@H](Cc1ccc(O)cc1)NC(=O)[C@H](CO)NC(=O)[C@H](Cc1c[nH]c2ccccc12)NC(=O)[C@H](Cc1c[nH]cn1)NC(=O)[C@@H]1CCC(=O)N1)C(=O)N[C@@H](CCCNC(=N)N)C(=O)N1CCC[C@H]1C(=O)NCC(N)=O [S12, reference compound]		do not form any detectable amyloid-like fibrils	a few hours	approximately 4 × 10^−6 S^−1	approximately 2 d				

The remaining lines, values behind:

Molecule	KD [2, 5] [nM]	t1/2 [2, 6]	Congo Red (Congo red (CR) binding)	EM^8 [3]	EM^30 [3]	Thio T Binding [4]	time to reach equilibrium of fluorescence inside and outside of the membrane ([2]; dialysis, 3.5-kDa cutoff, room temperature) [days]	Action [1]	EM, formation of amyloid-like fibrils at day 30 (in words) [3]	duration of action ([1]; ref [29],[30])	K off [2, 7]	t1/2 [2, 7]	stability of fibrils from release profile (in words) ([2]; dialysis of 30-d-old samples, 35 d)	Koff ([2]; monomer release from aggregates, dialysis of 30-d-old analog, 3.5-kDa MWCO, 5% D-mannitol, room temperature, 35 d, exponential fit)	CR binding (in words) (Congo red (CR) binding)	EM, formation of amyloid-like fibrils at day 8 (in words) ([3]; 8 d of incubation)
Ac-DNal-DCpa-DPal-Ser-Aph(Ac)-DAph(Ac)-Leu-Agl(Me,IβAla)-Pro-DAla-NH2 [L22]	7000	672 h	b	fib	fib	b		medium								
Ac-Agl(2-Napht)-DCpa-DPal-Ser-Aph(Ac)-DAph(Ac)-Leu-ILys-Pro-DAla-NH2 [L21]	2000	840 h	b	fib	fib	b		intermediate								
Ac-DNal-DCpa-DPal-Ser-Arg-DGlu(AA)-Leu-Arg-Pro-DAla-NH2 [S7, reference compound]		48 h	n	nfib	nfib	n			do not form any detectable amyloid-like fibrils							
des-Ac-[DAph(CONHOCH3)6]Peg-degarelix [S10]	1000	≫35 day	b	fib	fib	b			form amyloid-like fibrils		< 2 × 10^−7 S^−1	over 35 d	form very stable amyloids with very little peptide release	≪2 × 10^−7 s^−1	bind CR	form amyloid-like fibrils
Ac-Agl(Me,2-Napht)-DCpa-DPal-Ser-Aph(Ac)-DAph(Ac)-Leu-ILys-Pro-DAla-NH2 [S8]		48 h	n	nfib	nfib	n		very short	do not form any detectable amyloid-like fibrils							
